Data reported in article PMC9571063 (Molecules, 2022).
Read-outs that look alike come from different tables or passages of the source.

Legend:
[1] = target: T1, ABL1(F317L)-nonphosphorylated (Homo sapiens, UniProt P00519, F317L); experiment: KINOMEscan; assay type: binding; conditions: read-out: Percent Control
T1 construct: purchased Eurofins DiscoverX KINOMEscan (scanMAX 468)

[2] = target: T2, ABL2 (Homo sapiens, UniProt P42684); experiment: KINOMEscan; assay type: binding; conditions: read-out: Percent Control
T2 construct: purchased Eurofins DiscoverX KINOMEscan (scanMAX 468)

[3] = target: T3, ALK (Homo sapiens, UniProt Q9UM73); experiment: KINOMEscan; assay type: binding; conditions: read-out: Percent Control
T3 construct: purchased Eurofins DiscoverX KINOMEscan (scanMAX 468)

[4] = target: T4, BMX (Homo sapiens, UniProt P51813); experiment: KINOMEscan; assay type: binding; conditions: read-out: Percent Control
T4 construct: purchased Eurofins DiscoverX KINOMEscan (scanMAX 468)

[5] = target: T5, CAMKK1 (Homo sapiens, UniProt Q8N5S9); experiment: KINOMEscan; assay type: binding; conditions: read-out: Percent Control
T5 construct: purchased Eurofins DiscoverX KINOMEscan (scanMAX 468)

[6] = target: T6, CDK4 (Homo sapiens, UniProt P11802); experiment: KINOMEscan; assay type: binding; conditions: read-out: Percent Control
T6 construct: purchased Eurofins DiscoverX KINOMEscan (scanMAX 468)

[7] = target: T7, CDKL3 (Homo sapiens, UniProt Q8IVW4); experiment: KINOMEscan; assay type: binding; conditions: read-out: Percent Control
T7 construct: purchased Eurofins DiscoverX KINOMEscan (scanMAX 468)

[8] = target: T8, CHEK1 (Homo sapiens, UniProt O14757); experiment: KINOMEscan; assay type: binding; conditions: read-out: Percent Control
T8 construct: purchased Eurofins DiscoverX KINOMEscan (scanMAX 468)

[9] = target: T9, DAPK3 (Homo sapiens, UniProt O43293); experiment: KINOMEscan; assay type: binding; conditions: read-out: Percent Control
T9 construct: purchased Eurofins DiscoverX KINOMEscan (scanMAX 468)

[10] = target: T10, EPHA8 (Homo sapiens, UniProt P29322); experiment: KINOMEscan; assay type: binding; conditions: read-out: Percent Control
T10 construct: purchased Eurofins DiscoverX KINOMEscan (scanMAX 468)

[11] = target: T11, ERK1 (Homo sapiens, UniProt P27361); experiment: KINOMEscan; assay type: binding; conditions: read-out: Percent Control
T11 construct: purchased Eurofins DiscoverX KINOMEscan (scanMAX 468)

[12] = target: T12, ERK4 (Homo sapiens, UniProt P31152); experiment: KINOMEscan; assay type: binding; conditions: read-out: Percent Control
T12 construct: purchased Eurofins DiscoverX KINOMEscan (scanMAX 468)

[13] = target: T13, FER (Homo sapiens, UniProt P16591); experiment: KINOMEscan; assay type: binding; conditions: read-out: Percent Control
T13 construct: purchased Eurofins DiscoverX KINOMEscan (scanMAX 468)

[14] = tested on: FLT3(ITD); experiment: KINOMEscan; assay type: binding, human; conditions: 1 μM
[15] = tested on: FLT3(ITD,D835V); experiment: KINOMEscan; assay type: binding, human; conditions: 1 μM
[16] = target: T14, IKK-beta (Homo sapiens, UniProt O14920); experiment: KINOMEscan; assay type: binding; conditions: read-out: Percent Control
T14 construct: purchased Eurofins DiscoverX KINOMEscan (scanMAX 468)

[17] = target: T15, INSR (Homo sapiens, UniProt P06213); experiment: KINOMEscan; assay type: binding; conditions: read-out: Percent Control
T15 construct: purchased Eurofins DiscoverX KINOMEscan (scanMAX 468)

[18] = target: T16, IRAK3 (Homo sapiens, UniProt Q9Y616); experiment: KINOMEscan; assay type: binding; conditions: read-out: Percent Control
T16 construct: purchased Eurofins DiscoverX KINOMEscan (scanMAX 468)

[19] = target: T17, IRAK4 (Homo sapiens, UniProt Q9NWZ3); experiment: KINOMEscan; assay type: binding; conditions: read-out: Percent Control
T17 construct: purchased Eurofins DiscoverX KINOMEscan (scanMAX 468)

[20] = target: T18, JAK2(JH1domain-catalytic) (Homo sapiens, UniProt O60674); experiment: KINOMEscan; assay type: binding; conditions: read-out: Percent Control
T18 construct: JAK2(JH1domain-catalytic); purchased Eurofins DiscoverX KINOMEscan (scanMAX 468)

[21] = target: T19, KIT-autoinhibited (Homo sapiens, UniProt P10721); experiment: KINOMEscan; assay type: binding; conditions: read-out: Percent Control
T19 construct: purchased Eurofins DiscoverX KINOMEscan (scanMAX 468)

[22] = target: T20, LTK (Homo sapiens, UniProt P29376); experiment: KINOMEscan; assay type: binding; conditions: read-out: Percent Control
T20 construct: purchased Eurofins DiscoverX KINOMEscan (scanMAX 468)

[23] = target: T21, MAP3K4 (Homo sapiens, UniProt Q9Y6R4); experiment: KINOMEscan; assay type: binding; conditions: read-out: Percent Control
T21 construct: purchased Eurofins DiscoverX KINOMEscan (scanMAX 468)

[24] = target: T22, MAP4K5 (Homo sapiens, UniProt Q9Y4K4); experiment: KINOMEscan; assay type: binding; conditions: read-out: Percent Control
T22 construct: purchased Eurofins DiscoverX KINOMEscan (scanMAX 468)

[25] = target: T23, MAPKAPK2 (Homo sapiens, UniProt P49137); experiment: KINOMEscan; assay type: binding; conditions: read-out: Percent Control
T23 construct: purchased Eurofins DiscoverX KINOMEscan (scanMAX 468)

[26] = target: T24, MLCK (Homo sapiens, UniProt Q32MK0); experiment: KINOMEscan; assay type: binding; conditions: read-out: Percent Control
T24 construct: purchased Eurofins DiscoverX KINOMEscan (scanMAX 468)

[27] = target: T25, MYLK (Homo sapiens, UniProt Q15746); experiment: KINOMEscan; assay type: binding; conditions: read-out: Percent Control
T25 construct: purchased Eurofins DiscoverX KINOMEscan (scanMAX 468)

[28] = target: T26, NIK (Homo sapiens, UniProt Q99558); experiment: KINOMEscan; assay type: binding; conditions: read-out: Percent Control
T26 construct: purchased Eurofins DiscoverX KINOMEscan (scanMAX 468)

[29] = target: T27, PCTK2 (Homo sapiens, UniProt Q00537); experiment: KINOMEscan; assay type: binding; conditions: read-out: Percent Control
T27 construct: purchased Eurofins DiscoverX KINOMEscan (scanMAX 468)

[30] = target: T28, PIK3C2G (Homo sapiens, UniProt O75747); experiment: KINOMEscan; assay type: binding; conditions: read-out: Percent Control
T28 construct: purchased Eurofins DiscoverX KINOMEscan (scanMAX 468)

[31] = target: T29, PIM2 (Homo sapiens, UniProt Q9P1W9); experiment: KINOMEscan; assay type: binding; conditions: read-out: Percent Control
T29 construct: purchased Eurofins DiscoverX KINOMEscan (scanMAX 468)

[32] = target: T30, PRKD2 (Homo sapiens, UniProt Q9BZL6); experiment: KINOMEscan; assay type: binding; conditions: read-out: Percent Control
T30 construct: purchased Eurofins DiscoverX KINOMEscan (scanMAX 468)

[33] = target: T31, RPS6KA4(Kin.Dom.2-C-terminal) (Homo sapiens, UniProt O75676); experiment: KINOMEscan; assay type: binding; conditions: read-out: Percent Control
T31 construct: RPS6KA4(Kin.Dom.2-C-terminal); purchased Eurofins DiscoverX KINOMEscan (scanMAX 468)

[34] = target: T32, SgK110 (Homo sapiens, UniProt P0C264); experiment: KINOMEscan; assay type: binding; conditions: read-out: Percent Control
T32 construct: purchased Eurofins DiscoverX KINOMEscan (scanMAX 468)

[35] = target: T33, SNARK (Homo sapiens, UniProt Q9H093); experiment: KINOMEscan; assay type: binding; conditions: read-out: Percent Control
T33 construct: purchased Eurofins DiscoverX KINOMEscan (scanMAX 468)

[36] = target: T34, STK39 (Homo sapiens, UniProt Q9UEW8); experiment: KINOMEscan; assay type: binding; conditions: read-out: Percent Control
T34 construct: purchased Eurofins DiscoverX KINOMEscan (scanMAX 468)

[37] = target: T35, TBK1 (Homo sapiens, UniProt Q9UHD2); experiment: KINOMEscan; assay type: binding; conditions: read-out: Percent Control
T35 construct: purchased Eurofins DiscoverX KINOMEscan (scanMAX 468)

[38] = target: T36, TNK1 (Homo sapiens, UniProt Q13470); experiment: KINOMEscan; assay type: binding; conditions: read-out: Percent Control
T36 construct: purchased Eurofins DiscoverX KINOMEscan (scanMAX 468)

[39] = target: T37, TYRO3 (Homo sapiens, UniProt Q06418); experiment: KINOMEscan; assay type: binding; conditions: read-out: Percent Control
T37 construct: purchased Eurofins DiscoverX KINOMEscan (scanMAX 468)

[40] = target: T38, YANK2 (Homo sapiens, UniProt Q9NY57); experiment: KINOMEscan; assay type: binding; conditions: read-out: Percent Control
T38 construct: purchased Eurofins (KINOMEscan, DiscoverX)

[41] = target: T39, YSK4 (Homo sapiens, UniProt Q56UN5); experiment: KINOMEscan; assay type: binding; conditions: read-out: Percent Control
T39 construct: purchased Eurofins (KINOMEscan, DiscoverX)

[42] = target: T40, MmCLK1 (Mus musculus, UniProt P22518); parameters: method as in ref 13 (a number printed in a supplementary file, which may have a reference list of its own: not looked up in the article's list); conditions: DB18, cited from earlier work
T40 construct: host or cells: bacteria
T40 sequence (P22518 whole entry): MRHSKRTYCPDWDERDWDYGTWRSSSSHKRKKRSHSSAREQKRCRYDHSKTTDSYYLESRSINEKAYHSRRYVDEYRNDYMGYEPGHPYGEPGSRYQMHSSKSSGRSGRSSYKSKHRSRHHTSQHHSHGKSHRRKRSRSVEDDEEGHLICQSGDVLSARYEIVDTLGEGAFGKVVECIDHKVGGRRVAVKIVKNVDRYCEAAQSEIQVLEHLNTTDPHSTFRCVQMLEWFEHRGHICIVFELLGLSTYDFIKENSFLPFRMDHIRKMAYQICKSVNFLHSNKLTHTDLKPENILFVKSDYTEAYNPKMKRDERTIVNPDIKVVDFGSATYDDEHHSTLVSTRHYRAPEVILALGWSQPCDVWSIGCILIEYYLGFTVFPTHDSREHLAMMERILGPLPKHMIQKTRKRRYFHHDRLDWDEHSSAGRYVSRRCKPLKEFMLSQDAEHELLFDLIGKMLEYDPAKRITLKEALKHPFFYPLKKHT

T16 sequence (Q9Y616 whole entry): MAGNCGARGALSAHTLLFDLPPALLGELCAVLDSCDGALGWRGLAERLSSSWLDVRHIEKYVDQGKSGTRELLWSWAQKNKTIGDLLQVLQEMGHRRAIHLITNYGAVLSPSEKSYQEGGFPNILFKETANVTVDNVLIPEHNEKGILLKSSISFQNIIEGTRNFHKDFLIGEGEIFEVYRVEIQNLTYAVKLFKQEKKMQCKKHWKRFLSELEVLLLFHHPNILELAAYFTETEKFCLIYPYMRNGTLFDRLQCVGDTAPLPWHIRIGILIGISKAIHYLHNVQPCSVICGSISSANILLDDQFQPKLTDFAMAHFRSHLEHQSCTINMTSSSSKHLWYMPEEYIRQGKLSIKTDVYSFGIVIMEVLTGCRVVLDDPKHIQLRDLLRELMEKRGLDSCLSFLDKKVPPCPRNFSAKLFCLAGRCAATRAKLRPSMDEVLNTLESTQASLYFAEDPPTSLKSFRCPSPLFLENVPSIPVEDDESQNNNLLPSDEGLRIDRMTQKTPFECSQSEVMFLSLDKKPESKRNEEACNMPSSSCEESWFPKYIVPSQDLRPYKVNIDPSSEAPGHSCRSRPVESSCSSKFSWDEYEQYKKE
T28 sequence (O75747 whole entry): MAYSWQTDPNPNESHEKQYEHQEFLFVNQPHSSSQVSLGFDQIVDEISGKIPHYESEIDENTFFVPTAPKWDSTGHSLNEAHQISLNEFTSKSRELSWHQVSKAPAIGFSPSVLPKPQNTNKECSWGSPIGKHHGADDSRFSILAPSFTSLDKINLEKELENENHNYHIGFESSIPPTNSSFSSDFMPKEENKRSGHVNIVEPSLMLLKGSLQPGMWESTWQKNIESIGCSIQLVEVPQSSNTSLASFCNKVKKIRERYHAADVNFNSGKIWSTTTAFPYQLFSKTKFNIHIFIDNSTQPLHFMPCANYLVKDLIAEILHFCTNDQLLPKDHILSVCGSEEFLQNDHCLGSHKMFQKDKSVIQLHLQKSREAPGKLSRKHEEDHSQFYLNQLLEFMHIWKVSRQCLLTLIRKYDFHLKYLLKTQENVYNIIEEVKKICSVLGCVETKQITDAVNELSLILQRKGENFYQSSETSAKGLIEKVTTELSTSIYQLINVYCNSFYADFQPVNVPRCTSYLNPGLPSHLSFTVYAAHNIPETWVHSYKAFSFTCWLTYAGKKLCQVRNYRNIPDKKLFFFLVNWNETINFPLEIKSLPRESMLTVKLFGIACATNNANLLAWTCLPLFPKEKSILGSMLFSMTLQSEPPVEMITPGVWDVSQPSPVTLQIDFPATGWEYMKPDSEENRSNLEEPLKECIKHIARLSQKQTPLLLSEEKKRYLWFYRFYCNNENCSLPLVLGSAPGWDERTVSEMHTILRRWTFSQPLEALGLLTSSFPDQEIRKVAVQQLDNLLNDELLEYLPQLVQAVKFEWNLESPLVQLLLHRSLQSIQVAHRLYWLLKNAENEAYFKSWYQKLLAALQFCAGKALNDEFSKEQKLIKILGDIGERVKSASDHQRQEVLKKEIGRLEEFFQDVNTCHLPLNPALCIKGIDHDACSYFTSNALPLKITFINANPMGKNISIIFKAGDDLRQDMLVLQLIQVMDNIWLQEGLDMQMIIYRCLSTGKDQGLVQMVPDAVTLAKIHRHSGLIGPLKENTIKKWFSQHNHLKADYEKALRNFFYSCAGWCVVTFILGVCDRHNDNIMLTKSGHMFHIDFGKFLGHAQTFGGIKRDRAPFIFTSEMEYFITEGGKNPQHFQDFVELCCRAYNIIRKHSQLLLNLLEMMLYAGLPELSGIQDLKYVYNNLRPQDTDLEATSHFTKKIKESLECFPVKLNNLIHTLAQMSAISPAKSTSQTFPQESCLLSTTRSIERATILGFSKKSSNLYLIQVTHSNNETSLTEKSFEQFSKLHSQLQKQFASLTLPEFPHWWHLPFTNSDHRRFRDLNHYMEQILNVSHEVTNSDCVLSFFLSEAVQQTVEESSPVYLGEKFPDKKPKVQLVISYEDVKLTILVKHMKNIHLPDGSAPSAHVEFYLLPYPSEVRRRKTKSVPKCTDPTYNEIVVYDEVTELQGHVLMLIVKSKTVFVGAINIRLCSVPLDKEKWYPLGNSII
T35 sequence (Q9UHD2 whole entry): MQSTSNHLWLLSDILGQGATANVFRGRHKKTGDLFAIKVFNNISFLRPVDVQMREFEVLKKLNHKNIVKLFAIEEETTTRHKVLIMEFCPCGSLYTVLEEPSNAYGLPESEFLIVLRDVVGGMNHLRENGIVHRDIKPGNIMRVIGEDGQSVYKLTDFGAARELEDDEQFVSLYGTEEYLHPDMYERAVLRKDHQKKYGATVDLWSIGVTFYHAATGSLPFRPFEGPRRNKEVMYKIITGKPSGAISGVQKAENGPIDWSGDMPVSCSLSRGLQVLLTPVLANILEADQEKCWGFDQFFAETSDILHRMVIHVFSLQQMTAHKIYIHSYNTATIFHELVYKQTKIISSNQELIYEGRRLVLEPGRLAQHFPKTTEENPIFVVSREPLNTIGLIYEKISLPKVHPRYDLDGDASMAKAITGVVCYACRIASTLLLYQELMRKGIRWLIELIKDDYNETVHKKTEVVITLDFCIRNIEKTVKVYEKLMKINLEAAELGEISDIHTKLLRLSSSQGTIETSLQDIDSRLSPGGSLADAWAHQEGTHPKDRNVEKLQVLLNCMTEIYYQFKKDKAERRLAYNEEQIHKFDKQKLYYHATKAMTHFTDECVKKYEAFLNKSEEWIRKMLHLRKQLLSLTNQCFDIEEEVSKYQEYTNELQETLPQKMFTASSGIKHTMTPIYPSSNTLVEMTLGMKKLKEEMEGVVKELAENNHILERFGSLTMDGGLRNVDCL
T14 sequence (O14920 whole entry): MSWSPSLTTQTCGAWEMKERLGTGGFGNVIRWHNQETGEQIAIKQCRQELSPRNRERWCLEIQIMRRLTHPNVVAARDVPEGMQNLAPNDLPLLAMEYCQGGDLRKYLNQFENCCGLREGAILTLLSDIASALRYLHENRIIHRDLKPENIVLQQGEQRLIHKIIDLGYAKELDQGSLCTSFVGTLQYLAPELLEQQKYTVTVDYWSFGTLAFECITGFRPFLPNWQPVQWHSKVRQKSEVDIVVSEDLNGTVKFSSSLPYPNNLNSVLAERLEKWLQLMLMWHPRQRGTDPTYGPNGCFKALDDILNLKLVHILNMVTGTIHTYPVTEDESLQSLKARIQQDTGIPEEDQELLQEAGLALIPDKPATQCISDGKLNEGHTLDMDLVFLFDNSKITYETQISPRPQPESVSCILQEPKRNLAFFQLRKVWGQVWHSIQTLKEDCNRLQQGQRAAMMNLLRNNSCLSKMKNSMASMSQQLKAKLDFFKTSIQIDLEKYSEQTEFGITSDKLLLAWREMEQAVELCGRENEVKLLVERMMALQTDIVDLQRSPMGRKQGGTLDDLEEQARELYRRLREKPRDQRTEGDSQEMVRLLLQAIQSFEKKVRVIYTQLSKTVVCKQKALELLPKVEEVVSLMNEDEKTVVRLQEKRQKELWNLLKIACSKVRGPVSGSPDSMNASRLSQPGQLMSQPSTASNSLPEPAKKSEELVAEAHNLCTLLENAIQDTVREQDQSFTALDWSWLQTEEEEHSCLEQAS
T30 sequence (Q9BZL6 whole entry): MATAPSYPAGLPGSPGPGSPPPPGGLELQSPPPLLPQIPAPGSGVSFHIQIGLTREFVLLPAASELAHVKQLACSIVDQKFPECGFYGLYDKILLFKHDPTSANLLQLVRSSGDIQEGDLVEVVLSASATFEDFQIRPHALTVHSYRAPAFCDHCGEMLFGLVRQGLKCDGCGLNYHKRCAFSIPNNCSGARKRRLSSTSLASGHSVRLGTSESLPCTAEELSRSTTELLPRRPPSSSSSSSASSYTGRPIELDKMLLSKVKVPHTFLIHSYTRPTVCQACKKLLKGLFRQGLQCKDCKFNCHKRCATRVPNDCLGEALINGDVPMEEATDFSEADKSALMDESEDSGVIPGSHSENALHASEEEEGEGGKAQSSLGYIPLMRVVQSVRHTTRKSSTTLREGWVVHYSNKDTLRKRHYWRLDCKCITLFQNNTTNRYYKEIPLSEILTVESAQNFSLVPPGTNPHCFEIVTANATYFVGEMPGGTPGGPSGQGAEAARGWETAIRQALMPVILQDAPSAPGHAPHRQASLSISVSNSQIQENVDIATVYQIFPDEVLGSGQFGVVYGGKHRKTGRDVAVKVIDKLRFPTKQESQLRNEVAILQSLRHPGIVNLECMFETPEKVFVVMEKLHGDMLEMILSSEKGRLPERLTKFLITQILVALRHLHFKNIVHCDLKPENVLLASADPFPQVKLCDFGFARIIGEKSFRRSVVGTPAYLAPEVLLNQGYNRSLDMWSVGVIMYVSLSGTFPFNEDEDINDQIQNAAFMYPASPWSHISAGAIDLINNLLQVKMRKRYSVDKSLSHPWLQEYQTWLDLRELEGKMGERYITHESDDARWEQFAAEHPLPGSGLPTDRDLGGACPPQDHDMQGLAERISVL

**Q.** What does the source list for `Cc1ccc(-n2cc(COc3cccc4cnc(Nc5cccc(Cl)c5)nc34)nn2)c([N+](=O)[O-])c1` [DB18]?
**A.** remaining binding at 1 µM [1]: 100%; remaining binding at 1 µM [2]: 100%; remaining binding at 1 µM [3]: 100%; remaining binding at 1 µM [4]: 100%; remaining binding at 1 µM [5]: 100%; remaining binding at 1 µM [6]: 100%; remaining binding at 1 µM [7]: 94%; remaining binding at 1 µM [8]: 100%; remaining binding at 1 µM [9]: 98%; remaining binding at 1 µM [10]: 100%; remaining binding at 1 µM [11]: 100%; remaining binding at 1 µM [12]: 100%; remaining binding at 1 µM [13]: 100%; Percent Control [14]: 62 % Ctrl; Percent Control [15]: 53 % Ctrl; remaining binding at 1 µM [16]: 100%; remaining binding at 1 µM [17]: 93%; remaining binding at 1 µM [18]: 59%; remaining binding at 1 µM [19]: 100%; remaining binding at 1 µM [20]: 100%; remaining binding at 1 µM [21]: 97%; remaining binding at 1 µM [22]: 80%; remaining binding at 1 µM [23]: 100%; remaining binding at 1 µM [24]: 100%; remaining binding at 1 µM [25]: 100%; remaining binding at 1 µM [26]: 89%; remaining binding at 1 µM [27]: 92%; remaining binding at 1 µM [28]: 86%; remaining binding at 1 µM [29]: 98%; remaining binding at 1 µM [30]: 97%; remaining binding at 1 µM [31]: 100%; remaining binding at 1 µM [32]: 100%; remaining binding at 1 µM [33]: 100%; remaining binding at 1 µM [34]: 85%; remaining binding at 1 µM [35]: 100%; remaining binding at 1 µM [36]: 97%; remaining binding at 1 µM [37]: 91%; remaining binding at 1 µM [38]: 100%; remaining binding at 1 µM [39]: 100%; remaining binding at 1 µM [40]: 100%; remaining binding at 1 µM [41]: 34%; % of residual activity Mm_CLK1 ([42]; 1 µM): 21%; % of residual activity Mm_CLK1 ([42]; 10 µM): 11%
